pIC50: −log10 of the molar value. Where “and” joins values, the source holds several entries; their conditions need not be identical. Equal entries are not always repeated.
Tests used:
human CDK2-cyclin E = target: T1, human CDK2-cyclin E (Homo sapiens, UniProt P24941); assay: CDK2 inhibitory activity (incorporation of 32P from [γ-32P]-ATP into GST-RB); type: biochemical; settings: 50 μmol/L ATP, 30° C., 5 minutes; read-out: Enzyme Inhibitory Activity, IC50
T1 construct: made in house; host or cells: Spodoptera frugiperda (Sf-9) insect cells, baculovirus
Experimental: A crude extract of cells of an insect, Spodoptera frugiperda (Sf-9) infected with human CDK2-cyclin E-expressing baculovirus was subjected to an affinity purification to give an enzyme solution. The enzyme solution (4 μL), 20 μL of reaction solution containing a DMSO solution in which a test compound was dissolved (final concentration: 0.1%) and 5 μL of a substrate solution [50 μmol/L of ATP (final concentration), 2 μCi of [γ-^32P]-ATP and 500 ng of […] (GST-RB)] were incubated at 30° C. for 5 minutes. A sodium dodecylsulfate-polyacrylamide gel electrophoresis (SDS-PAGE) was carried out, then incorporation of radiation activity from [γ-^32P]-ATP into GST-RB was determined using an Image Analyzer BAS 200 (Fuji Photo-Film) and an enzyme inhibition was calculated. CDK2 inhibitory activity (I) at various concentrations of a test compound was calculated by the following formula using radiation activity (C) of the group to which no test compound was added, radiation activity (S) of the group to which a test compound was added and radiation activity (B) of a background (a sample where the reaction time was 0 hour) and a concentration by which CDK2 activity was inhibited to an extent of 50% by each test compound was defined as IC50. I(%)=[1−(S−B)/(C−B)]×100

Saos-2 cells = assay: Cell growth inhibition against human osteosarcoma cells Saos-2; type: cell-based; settings: Saos-2, 72 hours, read-out: Cell Growth Inhibitory Activity, IC50, Saos-2
Experimental: (§1) Each of Saos-2 and U2OS cells was made into 1.0×10^4 cells/mL using a Roswell Park Memorial Institute's medium (RPMI) 1640 (manufactured by Nissui) containing 10% of fetal bovine serum and penicillin/streptomycin and a Dulbecco's modified Eagle medium (DME) (manufactured by Nissui) containing 10% fetal bovine serum and penicillin/streptomycin each. Each of the prepared cells was dispensed in an amount of 0.1 mL per well to a 96-well microtiter plate (#167008 manufactured by Nunk). Each plate was incubated in a carbon dioxide gas incubator at 37° C. for 20 hours. A solution of a test compound in DMSO prepared into 10 mmol/L was diluted with each medium for incubation and each 0.05 mL thereof was added to each well, subjected to stepwise dilution by means of a pipetting operation in the plate and incubated at 37° C. for 72 hours in a carbon dioxide gas incubator.
(§2) A supernatant was removed from cell culture, each well was washed with 0.1 mL of a phosphate buffer (PBS buffer) twice and 0.1 mL of the above medium was added to each well. A cell proliferation kit II (manufactured by Boehringer Mannheim) was used for the measurement of cell numbers in each well. A reagent for color reaction was added, incubation was carried out in a carbon dioxide gas incubator at 37° C. for 3 hours and absorbance at 490 nm and 650 nm was measured in a microplate reader (M-SP max 250; manufactured by Wako Pure Chemicals). A value where absorbance at 650 nm was deducted from that at 490 nm (difference absorbance) was calculated for each well and the difference absorbance obtained from non-treated cells and cells which were treated with a test compound of a known concentration was compared whereupon a concentration of the test compound which inhibited the cell growth to an extent of 50% was calculated and expressed as IC50.

U2OS cells = assay: Cell growth inhibition against human osteosarcoma cells U2OS; type: cell-based; settings: 72 hours, read-out: Cell Growth Inhibitory Activity, IC50, U2OS
Experimental: as §1, §2

[1] = tested on: human epidermoid carcinoma cells A431; assay: Abrogating action for the cell cycle accumulation in G2 and S phases (flow cytometry DNA histogram); type: cell-based; settings: cisplatin 20 μmol/L
Experimental: Each 5 mL of human epidermoid carcinoma cells A431 (hereinafter, referred to as A431 cells) prepared in 6×10^4 cells/mL in a DMEM medium (manufactured by Nissui; hereinafter, referred to as the medium A) containing 10% fetal bovine serum were disposed in a 10-cm laboratory dish (manufactured by Falcon; product no. 3303). The plate was incubated in a carbon dioxide gas incubator at 37° C. for 24 hours, then cisplatin (manufactured by Sigma) where its final concentration in the medium A was made 20 μmol/L was added and the mixture was incubated at 37° C. for 1 hour in a carbon dioxide gas incubator.
After removing the medium, the cell was washed with PBS(−) [phosphate-buffered physiological saline solution (containing no calcium ion); manufactured by Dainippon Pharmaceutical, then the medium A was added thereto, the mixture was incubated at 37° C. for 15 hours in a carbon dioxide gas incubator, a compound which was appropriately diluted with the medium A was added thereto and the mixture was incubated again in a carbon dioxide gas incubator at 37° C. for 8 hours. After removal of the supernatant from the culture, the cell was washed with PBS(−), exfoliated with a 0.25% aqueous solution of trypsin (0.25% Trypsin manufactured by Gibco BRL) and a 0.02% aqueous solution of ethylenediaminetetraacetic acid (manufactured by Wako Pure Chemicals), fixed with a 70% aqueous solution of ethanol so as to make the cell concentration 10^6 cells/mL and preserved in a cool chamber of 4° C. The fixed cells were subjected to a centrifugal separation to remove ethanol, washed with PBS(−) and treated with a 0.25 mg/mL ribonuclease A type 1-A (manufactured by Sigma) PBS(−) solution containing 0.1% Nonidet P-40 (manufactured by Nakarai Kagaku Yakuhin) at 37° C. for 30 minutes and a 0.1% solution of propidium iodide (manufactured by Sigma) in NP-40/PBS(−) so as to make the final concentration 50 μg/mL followed by staining in ice for not shorter than 20 minutes.
A DNA histogram was measured using an EPICS ELITE Flow Cytometer (manufactured by Coulter) and distribution of cell cycle was analyzed using a MultiCycle Program (manufactured by Phonenix Flow Systems).

SMILES	pIC50 (human CDK2-cyclin E)	pIC50 (Saos-2 cells)	pIC50 (U2OS cells)	also measured
CCCCC(=O)Oc1cccc(-c2cc3c(cc(C=O)n3C)c3c2C(=O)NC3=O)c1 [Compound 12]	5.30			
CN(C)CCCn1c2ccccc2c2c3c(c(C=O)cc21)C(=O)NC3=O [Compound 64]	5.15	5.89	5.80	
C=CCn1c2ccccc2c2c3c(c(C=O)cc21)C(=O)NC3=O [Compound 50]	6.18			
CC(Cn1c2ccccc2c2c3c(c(C=NN)cc21)C(=O)NC3=O)N(C)C (centres unmarked) [Compound 69]	6.02	6.52	6.17	
C=CCn1c2ccccc2c2c3c(c(C=NNCCO)cc21)C(=O)NC3=O [Compound 54]	5.70			
Cn1c2ccccc2c2c3c(c(CBr)cc21)C(=O)NC3=O [Compound 36]	5.64			
C=CCn1c2ccccc2c2c3c(c(CO)cc21)C(=O)NC3=O [Compound 46]	5.48			
N.N.[Cl][Pt][Cl] [Cisplatin, cisplatin]				Cell Cycle Distribution (%) G1 [1]: 2.2% and 10.4%; Cell Cycle Distribution (%) G2M [1]: 17.2% and 22.4%; Cell Cycle Distribution (%) S [1]: 80.6% and 67.2%; Change of cell cycle distribution as compared with untreated groups (induction of the accumulation in G2 or S phase) [1]: increase in S phase, increase in G2 and M phase and decrease in G1 phase
C=CCn1c2ccccc2c2c3c(c(N)cc21)C(=O)NC3=O [Compound 45]	5.31			
COC(=O)c1ccc(Cn2c3ccccc3c3c4c(c(COC5CCCCO5)cc32)C(=O)NC4=O)cc1 (centres unmarked) [Compound 79]	5.70			
O=C1NC(=O)c2c1c(COC1CCCCO1)cc1c2c2ccccc2n1Cc1ccc2ccccc2c1 (centres unmarked) [Compound 80]	5.62			
CC(Cn1c2ccccc2c2c3c(c(C=O)cc21)C(=O)NC3=O)N(C)C (centres unmarked) [Compound 66]	6.60	5.92	5.68	
CC(Cn1c2ccccc2c2c3c(c(C=NO)cc21)C(=O)NC3=O)N(C)C (centres unmarked) [Compound 68]	6.70	6.03	5.92	
CN(C)CCCn1c2ccccc2c2c3c(c(C=NO)cc21)C(=O)NC3=O [Compound 65]	5.55	6.17	6.30	
C=CCn1c2ccccc2c2c3c(c(CN=[N+]=[N-])cc21)C(=O)NC3=O [Compound 48]	6.37			
C=CCn1c2ccccc2c2c3c(c(COC4CCCCO4)cc21)C(=O)NC3=O (centres unmarked) [Compound 47]	5.40			
